Results published in patent US10294202B2, “Pyrrolidinones as herbicides” (FMC Corporation, priority 2013, dated 2019).

How the values were obtained:
[1] = system: ducksalad; assay: Test B flooded paddy test; type: in vivo, Heteranthera limosa; details: 500 g ai/ha, Flood; scale of 0 to 100 where 0 is no effect and 100 is complete control
Outline: (§1)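 Visual ratings from 0, meaning no effect, up to 100, meaning complete control, were made by comparison with untreated controls 13 to 15 days after treatment. Test compounds went straight into floodwater standing 3 cm over the soil of pots holding 2-leaf seedlings.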

[2] = system: kochia; assay: Test A pre-/postemergence herbicide test; type: in vivo, Kochia scoparia; details: for Plant response rating, Kochia: 0 to 100 scale
Outline: (§2)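 Visual injury ratings, 0 = no effect, 100 = complete control, taken ~10 days after treatment against untreated greenhouse controls. Preemergence: directed soil spray onto seeded loam/sand pots. Postemergence: spray onto plants at one- to two-leaf stage, 2–10 cm tall.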

[3] = system: barnyardgrass; assay: Test B flooded paddy test; type: in vivo, Echinochloa crus-galli; details: 500 g ai/ha, Flood; scale of 0 to 100 where 0 is no effect and 100 is complete control
Outline: as §1

[4] = system: corn; assay: Test A pre-/postemergence herbicide test; type: in vivo, Zea mays; details: Postemergence; for Plant response rating, Corn: 125 g ai/ha, 0 to 100 scale; for Corn plant response rating (0 to 100 scale, 0 is no effect, 100 is complete control): 500 g ai/ha
Outline: as §2

[5] = system: ragweed; assay: Test A pre-/postemergence herbicide test; type: in vivo, Ambrosia elatior; details: for Plant response rating, Ragweed: 0 to 100 scale
Outline: as §2

[6] = system: galium; assay: Test A postemergence herbicide test; type: in vivo, Galium aparine; details: for Plant response rating, Galium: 125 g ai/ha, 0 to 100 scale; for Galium plant response rating (0 to 100 scale, 0 is no effect, 100 is complete control): 500 g ai/ha
Outline: (§3)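 Injury was rated visually about 10 days after treatment on a 0 (no effect) to 100 (complete control) scale, compared with untreated plants. Test chemicals were sprayed postemergence onto greenhouse plants 2–10 cm high at one to two leaves, grown in a loam–sand blend.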

[7] = system: blackgrass; assay: Test A postemergence herbicide test; type: in vivo, Alopecurus myosuroides; details: for Plant response rating, Blackgrass: 125 g ai/ha, 0 to 100 scale; for Blackgrass plant response rating (0 to 100 scale, 0 is no effect, 100 is complete control): 500 g ai/ha
Outline: as §3

[8] = system: ryegrass, Italian; assay: Test A pre-/postemergence herbicide test; type: in vivo, Lolium multiflorum; details: for Plant response rating, Ryegrass, Italian: 0 to 100 scale
Outline: as §2

[9] = system: wheat; assay: Test A pre-/postemergence herbicide test; type: in vivo, Triticum aestivum; details: Postemergence; for Plant response rating, Wheat: 125 g ai/ha, 0 to 100 scale; for Wheat plant response rating (0 to 100 scale, 0 is no effect, 100 is complete control): 500 g ai/ha
Outline: as §2

[10] = system: rice; assay: Test B flooded paddy test; type: in vivo, Oryza sativa; details: 500 g ai/ha, Flood; scale of 0 to 100 where 0 is no effect and 100 is complete control
Outline: as §1

[11] = system: sedge, umbrella; assay: Test B flooded paddy test; type: in vivo, Cyperus difformis; details: 500 g ai/ha, Flood; scale of 0 to 100 where 0 is no effect and 100 is complete control
Outline: as §1

[12] = system: pigweed; assay: Test A pre-/postemergence herbicide test; type: in vivo, Amaranthus retroflexus; details: for Plant response rating, Pigweed: 0 to 100 scale
Outline: as §2

[13] = system: barnyardgrass; assay: Test A pre-/postemergence herbicide test; type: in vivo, Echinochloa crus-galli
Outline: as §2

[14] = system: giant foxtail; assay: Test A pre-/postemergence herbicide test; type: in vivo, Setaria faberii; details: for Plant response rating, Foxtail, Giant: 0 to 100 scale
Outline: as §2

[15] = 125 g ai/ha, visual rating, 0 no effect, 100 complete control, approximately 10 days, preemergence
[16] = Postemergence, 125 g ai/ha, 0 is no effect, 100 is complete control
[17] = preemergence, 500 g ai/ha, 0 is no effect and 100 is complete control
[18] = 0 is no effect, 100 is complete control
[19] = 125 g ai/ha, visual rating, 0 to 100 scale, 0 no effect, 100 complete control, approximately 10 days, preemergence
[20] = preemergence, 500 g ai/ha, 0 to 100 scale (0 no effect, 100 complete control)
[21] = Postemergence, 125 g ai/ha, 0 no effect, 100 complete control
[22] = 0 no effect, 100 complete control

Row | Compound | Plant response rating, Ducksalad [1] | Plant response rating, Kochia [2, 15] | Kochia plant response rating (0 to 100 scale, 0 is no effect, 100 is complete control) ([2]; Postemergence, 500 g ai/ha) | Plant response rating, Barnyardgrass [3] | Corn plant response rating (0 to 100 scale, 0 is no effect, 100 is complete control) [4] | Plant response rating, Ragweed [5, 15] | Ragweed plant response rating (0 to 100 scale, 0 is no effect, 100 is complete control) ([5]; Postemergence, 500 g ai/ha) | Galium plant response rating (0 to 100 scale, 0 is no effect, 100 is complete control) [6] | Blackgrass plant response rating (0 to 100 scale, 0 is no effect, 100 is complete control) [7] | Plant response rating, Ryegrass, Italian [8, 15] | Ryegrass, Italian plant response rating (0 to 100 scale, 0 is no effect, 100 is complete control) ([8]; Postemergence, 500 g ai/ha) | Wheat plant response rating (0 to 100 scale, 0 is no effect, 100 is complete control) [9] | Plant response rating, Rice [10] | Plant response rating, Sedge, Umbrella [11] | Plant response rating, Pigweed [12, 15] | Pigweed plant response rating (0 to 100 scale, 0 is no effect, 100 is complete control) ([12]; Postemergence, 500 g ai/ha) | Plant response rating, Barnyardgrass [13, 19] | Barnyardgrass plant response rating (0 to 100 scale, 0 is no effect, 100 is complete control) ([13]; Postemergence, 500 g ai/ha) | Plant response rating, Barnyardgrass [13, 20] | Plant response rating, Foxtail, Giant [14, 15] | other results
1 | CS(=O)(=O)c1ccccc1NC(=O)C1C(=O)NCC1c1cccc(C(F)(F)F)c1 (racemic) [Compound 160] | 100 | 80 | 80 | 60 | 70 | 70 | 60 | 70 | 70 | 60 | 10 | 50 | 10 | 0 | 70 | 80 | 80 | 80 | 90 | 80 | Plant response rating, Kochia [2, 16]: 70; Plant response rating, Kochia [2, 17]: 90; Plant response rating, Corn [4, 18]: 40; Plant response rating, Ragweed [5, 16]: 50; Plant response rating, Ragweed [5, 17]: 80; Plant response rating, Galium [6, 18]: 60; Plant response rating, Blackgrass [7, 18]: 60; Plant response rating, Ryegrass, Italian [8, 16]: 0; Plant response rating, Ryegrass, Italian [8, 17]: 70; Plant response rating, Wheat [9, 18]: 0; Plant response rating, Pigweed [12, 16]: 60; Plant response rating, Pigweed [12, 17]: 90; Plant response rating, Barnyardgrass ([13]; Postemergence, 125 g ai/ha, 0 to 100 scale, 0 is no effect, 100 is complete control): 70; Plant response rating, Foxtail, Giant [14, 16]: 80; Foxtail, Giant plant response rating (0 to 100 scale, 0 is no effect, 100 is complete control) ([14]; Postemergence, 500 g ai/ha): 90; Plant response rating, Foxtail, Giant ([14]; preemergence, 500 g ai/ha): 90
2 | Cc1ccc(C2CNC(=O)C2C(=O)Nc2cccc(F)c2F)cc1F (racemic) [Compound 146] | 100 | 0 | 70 | 80 | 50 | 0 | 60 | 70 | 70 | 0 | 60 | 70 | 0 | 0 | 0 | 0 | 90 | 90 | 90 | 80 | Plant response rating, Kochia [2, 21]: 0; Plant response rating, Kochia ([2]; preemergence, 500 g ai/ha): 30; Plant response rating, Corn [4, 22]: 0; Plant response rating, Ragweed [5, 21]: 0; Plant response rating, Ragweed ([5]; preemergence, 500 g ai/ha): 30; Plant response rating, Galium [6, 22]: 40; Plant response rating, Blackgrass [7, 22]: 30; Plant response rating, Ryegrass, Italian [8, 21]: 20; Plant response rating, Ryegrass, Italian ([8]; preemergence, 500 g ai/ha): 40; Plant response rating, Wheat [9, 22]: 0; Plant response rating, Pigweed [12, 21]: 0; Plant response rating, Pigweed ([12]; preemergence, 500 g ai/ha): 0; Plant response rating, Barnyardgrass ([13]; Postemergence, 125 g ai/ha, 0 to 100 scale, 0 no effect, 100 complete control): 90; Plant response rating, Foxtail, Giant [14, 21]: 0; Foxtail, Giant plant response rating (0 to 100 scale, 0 is no effect, 100 is complete control) ([14]; Postemergence, 500 g ai/ha): 70; Plant response rating, Foxtail, Giant ([14]; preemergence, 500 g ai/ha): 90
